Measurements from ChEMBL document CHEMBL1152215, “6-[2-(4-Aryl-1-piperazinyl)ethyl]-2H-1,4-benzoxazin-3(4H)-ones: dual-acting 5-HT1 receptor antagonists and serotonin reuptake inhibitors” (Bioorg Med Chem Lett, 2008).
pKi: −log10 of the molar value.

Tests used:
[1] = target: T1, 5-hydroxytryptamine receptor 1A (Homo sapiens, UniProt P08908); assay: Displacement of [3H]WAY-100635 from human 5HT1A receptor expressed in CHO cells; type: cell-based
T1 sequence (P08908 whole entry): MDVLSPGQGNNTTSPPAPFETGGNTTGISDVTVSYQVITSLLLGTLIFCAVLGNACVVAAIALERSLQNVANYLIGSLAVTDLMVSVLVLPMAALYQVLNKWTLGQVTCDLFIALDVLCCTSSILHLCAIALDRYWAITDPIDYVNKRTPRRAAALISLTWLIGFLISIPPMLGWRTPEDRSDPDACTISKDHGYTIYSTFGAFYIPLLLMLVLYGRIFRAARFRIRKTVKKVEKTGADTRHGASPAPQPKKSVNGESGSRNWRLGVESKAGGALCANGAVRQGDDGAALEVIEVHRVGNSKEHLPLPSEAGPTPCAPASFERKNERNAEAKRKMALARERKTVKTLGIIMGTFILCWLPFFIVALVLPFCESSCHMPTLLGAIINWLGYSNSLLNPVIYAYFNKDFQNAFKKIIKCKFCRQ

[2] = target: T2, 5-hydroxytryptamine receptor 1B (Homo sapiens, UniProt P28222); assay: Displacement of [3H]5HT from human 5HT1B receptor expressed in CHO cells; type: cell-based
T2 sequence (P28222 whole entry): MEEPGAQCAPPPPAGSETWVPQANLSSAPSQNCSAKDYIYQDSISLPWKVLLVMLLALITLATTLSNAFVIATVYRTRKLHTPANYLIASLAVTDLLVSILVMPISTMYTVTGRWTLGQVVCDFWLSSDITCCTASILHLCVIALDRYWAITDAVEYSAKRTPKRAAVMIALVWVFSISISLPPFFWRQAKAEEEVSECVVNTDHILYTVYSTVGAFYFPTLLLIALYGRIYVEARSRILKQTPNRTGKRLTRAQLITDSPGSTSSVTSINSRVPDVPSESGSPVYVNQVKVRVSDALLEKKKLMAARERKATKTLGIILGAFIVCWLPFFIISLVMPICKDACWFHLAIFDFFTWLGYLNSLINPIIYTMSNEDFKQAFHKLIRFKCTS

[3] = target: T3, 5-hydroxytryptamine receptor 1D (Homo sapiens, UniProt P28221); assay: Displacement of [3H]5HT from human 5HT1D receptor expressed in CHO cells; type: cell-based
T3 sequence (P28221 whole entry): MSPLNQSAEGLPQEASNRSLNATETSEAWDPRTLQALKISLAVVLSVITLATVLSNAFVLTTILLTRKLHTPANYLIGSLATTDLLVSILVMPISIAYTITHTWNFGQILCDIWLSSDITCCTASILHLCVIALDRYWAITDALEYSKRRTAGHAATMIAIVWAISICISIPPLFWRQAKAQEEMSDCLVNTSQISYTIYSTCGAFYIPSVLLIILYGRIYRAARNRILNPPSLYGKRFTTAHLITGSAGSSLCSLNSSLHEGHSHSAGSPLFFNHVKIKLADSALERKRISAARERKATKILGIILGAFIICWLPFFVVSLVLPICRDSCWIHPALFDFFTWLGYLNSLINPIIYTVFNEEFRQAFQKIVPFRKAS

[4] = target: Sodium-dependent serotonin transporter (Homo sapiens, UniProt P31645); assay: Displacement of [3H]citalopram from human SerT expressed pig LLCPK cells; type: cell-based
Chain of Sodium-dependent serotonin transporter (P31645 whole entry): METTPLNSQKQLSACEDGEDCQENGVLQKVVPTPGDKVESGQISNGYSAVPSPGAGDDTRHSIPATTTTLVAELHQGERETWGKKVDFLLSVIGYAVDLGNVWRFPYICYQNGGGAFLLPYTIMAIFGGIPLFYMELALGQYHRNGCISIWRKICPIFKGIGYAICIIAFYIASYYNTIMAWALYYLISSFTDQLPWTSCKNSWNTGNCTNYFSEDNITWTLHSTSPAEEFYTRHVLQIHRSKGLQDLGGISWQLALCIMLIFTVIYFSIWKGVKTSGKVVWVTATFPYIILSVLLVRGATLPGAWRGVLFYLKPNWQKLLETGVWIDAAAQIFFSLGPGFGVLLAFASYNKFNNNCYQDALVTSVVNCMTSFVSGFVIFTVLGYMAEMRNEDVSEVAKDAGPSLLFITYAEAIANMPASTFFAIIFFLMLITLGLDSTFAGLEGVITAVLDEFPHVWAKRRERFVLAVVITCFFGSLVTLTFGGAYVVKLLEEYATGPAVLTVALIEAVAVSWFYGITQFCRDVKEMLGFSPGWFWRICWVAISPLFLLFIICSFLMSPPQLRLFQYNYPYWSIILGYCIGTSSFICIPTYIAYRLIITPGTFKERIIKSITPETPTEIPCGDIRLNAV

[5] = target: T4, 5-hydroxytryptamine receptor 1A (Homo sapiens) (UniProt P08908); assay: Intrinsic activity at human 5HT1A receptor expressed in CHO cells by [S35]GTPgammaS binding assay relative to serotonin; type: functional, cell-based
T4 sequence (whole entry): T1 sequence (P08908 whole entry)

[6] = target: T2, 5-hydroxytryptamine receptor 1B; assay: Intrinsic activity at human 5HT1B receptor expressed in CHO cells by [S35]GTPgammaS binding assay relative to serotonin; type: functional, cell-based
[7] = target: T3, 5-hydroxytryptamine receptor 1D; assay: Intrinsic activity at human 5HT1D receptor expressed in CHO cells by [S35]GTPgammaS binding assay relative to serotonin; type: functional, cell-based
Liver microsomes [8] = assay: Metabolic stability in rat liver microsomes assessed as intrinsic clearance; type: ADME, Microsome
[9] = Blood Clearance in rat at 0.5 mg/kg, iv and 1 mg/kg, po; type: ADME, organism-based; conditions: whole blood
[10] = Volume of distribution in rat; type: ADME, organism-based; conditions: in vivo, read-out: Vdss
[11] = Half life in rat; type: ADME, organism-based; conditions: in vivo
[12] = Oral bioavailability in rat at 1 mg/kg; type: ADME, organism-based; conditions: in vivo
Liver microsomes [13] = assay: Metabolic stability in human liver microsomes assessed as intrinsic clearance; type: ADME, Microsome
[14] = Ratio of drug level in brain to blood in rat; type: ADME, organism-based; conditions: brain / whole blood

Row | pKi [1] | pKi [2] | pKi [3] | pKi [4] | Intrinsic activity [5] | Intrinsic activity [6] | Intrinsic activity [7] | CL (Liver microsomes [8]) [mL/min/g] | clearance [9] [mL/min/kg] | Vd [10] [L/kg] | half-life [11] [min] | bioavailability [12] [%] | CL (Liver microsomes [13]) [mL/min/g] | Kp [14] | Structure (SMILES)
1 | 8.50 | 8.90 | 8.80 | 9.40 | 0 | 0 | 0 |  |  |  |  |  |  |  | Cc1ccc2c(N3CCN(CCc4ccc5c(c4)NC(=O)CO5)[C@@H](C)C3)cccc2n1
2 | 6.90 | 9.10 | 7.60 | 8.40 | 0.8 | 0.2 | 0 |  |  |  |  |  |  |  | Cc1ccc2c(N3C[C@H]4C[C@@H]3CN4CCc3ccc4c(c3)NC(=O)CO4)cccc2n1
3 | 8.80 | 8.10 | 9.30 | 9.10 | 0 | 0 | 0 |  |  |  |  |  |  |  | Cc1ccc2c(N3CCN(CCc4ccc5c(c4)NC(=O)CO5)[C@H](C)C3)cccc2n1
4 | 8.40 | 9.30 | 9.70 | 8.80 | 0.7 | 0.3 | 0 |  |  |  |  |  |  |  | Cc1ccc2c(N3CCN(CCc4ccc5c(c4)NC(=O)CO5)CC3)ccc(Cl)c2n1
5 | 9.10 | 8.70 | 9.50 | 8.00 | 0.2 | 0.1 | 0 |  |  |  |  |  |  |  | Cc1ccc2c(N3CCN(CCc4ccc5c(c4)NC(=O)CO5)CC3C)cccc2n1 (centres undefined)
6 |  |  |  |  | 0.2 | 0.1 |  | 1.3 | 5 | 2 | 306 | 68 | < 0.5 |  | Cc1ccc2c(N3CCN(CCc4ccc5c(c4)NC(=O)CO5)CC3)cccc2n1
7 | 8.60 | 8.60 | 9.70 | 9.10 | 0 | 0 | 0 |  |  |  |  |  |  |  | Cc1ccc2c(N3CCN(CCc4ccc5c(c4)NC(=O)CO5)CC3)cc(F)cc2n1
8 | 9.90 | 9.20 | 9.40 | 7.80 | 1.2 | 0.3 | 0.3 |  |  |  |  |  |  |  | Cc1cc(N2CCN(CCc3ccc4c(c3)NC(=O)CO4)CC2)c2ccc(C)nc2c1
9 | 9.40 | 9.20 | 9.50 | 8.70 | 0.6 | 0.2 | 0 |  | 4 | 1.1 | 168 | 67 |  | 0.3 | Cc1ncc2c(N3CCN(CCc4ccc5c(c4)NC(=O)CO5)CC3)cccc2n1
10 | 9.50 | 9.30 | 9.80 | 9.10 | 0.4 | 0 | 0 |  |  |  |  |  |  |  | Cc1ccc2c(N3CCN(CCc4ccc5c(c4)NC(=O)CO5)CC3)cc(Cl)cc2n1
11 | 8.90 | 9.00 | 9.70 | 8.90 | 0 | 0.3 | 0 |  |  |  |  |  |  |  | Cc1ccc2c(N3CCN(CCc4cc(F)c5c(c4)NC(=O)CO5)CC3)cccc2n1

More lines, now with the values behind:

Row | Structure (SMILES) | pKi [1] | pKi [2] | pKi [3] | pKi [4] | Intrinsic activity [5] | Intrinsic activity [6] | Intrinsic activity [7] | CL (Liver microsomes [8]) [mL/min/g] | clearance [9] [mL/min/kg] | Vd [10] [L/kg] | half-life [11] [min] | bioavailability [12] [%] | CL (Liver microsomes [13]) [mL/min/g] | Kp [14]
12 | Cc1ccc2c(N3CCN(CCc4ccc5c(c4)NC(=O)CO5)CC3)ccc(F)c2n1 | 9.60 | 6.90 | 9.50 | 8.40 | 0.2 | 0 | 0 |  |  |  |  |  |  | 
13 | Cc1ccc2c(N3CCN(CCc4ccc5c(c4)N(C)C(=O)CO5)CC3)cccc2n1 |  |  |  |  | 0.3 | 0.2 |  | 0.8 | 8 | 2.7 | 264 | 59 | 1.1 | 
14 | Cc1ccc2c(N3CCN(CCc4ccc5c(c4F)NC(=O)CO5)CC3)cccc2n1 | 9.60 | 9.40 | 9.40 | 8.30 | 0.3 | 0.2 | 0 |  |  |  |  |  |  | 
15 | Cc1cc2c(N3CCN(CCc4ccc5c(c4)NC(=O)CO5)CC3)cccc2[nH]1 | 8.50 | 9.40 | 9.70 | 8.20 | 0.3 | 0.4 | 0.4 |  |  |  |  |  |  | 
16 | CC1(C)Cc2cccc(N3CCN(CCc4ccc5c(c4)NC(=O)CO5)CC3)c2O1 | 9.30 | 9.20 | 9.80 | 8.60 | 1.2 | 0.6 | 0.5 |  |  |  |  |  |  | 
17 | O=C1COc2ccc(CCN3CCN(c4nccc5ccccc45)CC3)cc2N1 | 7.00 | 9.10 | 9.60 | 9.10 | 1 | 0.5 | 0.4 |  |  |  |  |  |  | 
18 | O=C1COc2ccc(CCN3CCN(c4cccc5nc(-c6ccccc6)ccc45)CC3)cc2N1 | 9.20 | 9.50 | 7.90 | 9.80 | 0.4 | 0.2 | 0 |  |  |  |  |  |  | 
19 | CCN1C(=O)COc2ccc(CCN3CCN(c4cccc5nc(C)ccc45)CC3)cc21 | 9.30 | 9.10 | 9.40 | 7.10 | 0 | 0 | 0 |  |  |  |  |  |  | 
20 | Cc1ccc2c(N3CCN(CCc4cc5c(cc4F)OCC(=O)N5)CC3)cccc2n1 | 9.60 | 8.80 | 9.60 | 9.10 | 0.2 | 0.1 | 0 |  |  |  |  |  |  | 
21 | O=C1COc2ccc(CCN3CCN(c4cccc5cccnc45)CC3)cc2N1 | 8.80 | 7.50 | 9.60 | 8.00 | 0.8 | 0.7 | 0.7 |  |  |  |  |  |  | 
